# Molecular target: STAT6 (Homo sapiens (Human), UniProt P42226)
# Assay: STAT6 degrader assay (HiBiT, HeLa LgBiT clone 4.14)
# Assay type: cell-based
# Settings: HeLa LgBiT clone 4.14, 4-24 h; for DC50: geometric mean, given for compounds with >80% Emax, read-out: STAT6 degradation DC50
# Description: This was a HiBit based assay. A HeLa cell line stably transfected with a small protein, LgBit (Large Bit) was obtained from Promega. These cells express endogenous STAT6. A small 11 amino acid gene sequence (HiBiT) was inserted in the STAT6 gene using CRISPR technology. Once STAT6 protein is expressed in the cells, the HiBiT sequence will bind the LgBit in the cells resulting in a functional NanoBiT protein, giving a luminescent tag to STAT6, see FIG. 2.
# Single cell clones were prepared and the clone 4.14 was selected for the assay based on that clone showing high luminescence, high STAT6 phosphorylation upon stimulation with IL-4, and inhibition of luminescence when cells were treated with STAT6 siRNA.
# HeLa LgBiT clone 4.14 cells were suspended in DMEM with 10% FCS, 1% Pen/Strep, Na-pyrovate and Hygromycin B, at a concentration of 1.25*105 cells pr mL. 5000 cells were added pr well of a 384 well plate and 20 nL of compound was added by Echo® liquid handler. NN6394A (terfenadine, a toxic compound) was added to control wells at 50 μM concentration to establish the assay window. In these wells the cells are dead which equals 100% degradation of STAT6.
# After 4-24 h of incubation at 37° C. under 5% CO2/95% air, 5 μL substrate (Nano-GLO®) was added to the wells and the plates were centrifuged and incubated for 0.5 h.
# The luminescence in the wells as a measure of non-degraded STAT6 was measured in a plate reader (BMG Pherastar FSX). The measured DC50 (in nM) was determined.
# The dose-response curves Examples 3p1, 3e50, 3e17, and 3e51 are shown below (where percent degradation is plotted vs. test compound concentration in M on a log-scale).
# STAT6, sequence (P42226 whole entry): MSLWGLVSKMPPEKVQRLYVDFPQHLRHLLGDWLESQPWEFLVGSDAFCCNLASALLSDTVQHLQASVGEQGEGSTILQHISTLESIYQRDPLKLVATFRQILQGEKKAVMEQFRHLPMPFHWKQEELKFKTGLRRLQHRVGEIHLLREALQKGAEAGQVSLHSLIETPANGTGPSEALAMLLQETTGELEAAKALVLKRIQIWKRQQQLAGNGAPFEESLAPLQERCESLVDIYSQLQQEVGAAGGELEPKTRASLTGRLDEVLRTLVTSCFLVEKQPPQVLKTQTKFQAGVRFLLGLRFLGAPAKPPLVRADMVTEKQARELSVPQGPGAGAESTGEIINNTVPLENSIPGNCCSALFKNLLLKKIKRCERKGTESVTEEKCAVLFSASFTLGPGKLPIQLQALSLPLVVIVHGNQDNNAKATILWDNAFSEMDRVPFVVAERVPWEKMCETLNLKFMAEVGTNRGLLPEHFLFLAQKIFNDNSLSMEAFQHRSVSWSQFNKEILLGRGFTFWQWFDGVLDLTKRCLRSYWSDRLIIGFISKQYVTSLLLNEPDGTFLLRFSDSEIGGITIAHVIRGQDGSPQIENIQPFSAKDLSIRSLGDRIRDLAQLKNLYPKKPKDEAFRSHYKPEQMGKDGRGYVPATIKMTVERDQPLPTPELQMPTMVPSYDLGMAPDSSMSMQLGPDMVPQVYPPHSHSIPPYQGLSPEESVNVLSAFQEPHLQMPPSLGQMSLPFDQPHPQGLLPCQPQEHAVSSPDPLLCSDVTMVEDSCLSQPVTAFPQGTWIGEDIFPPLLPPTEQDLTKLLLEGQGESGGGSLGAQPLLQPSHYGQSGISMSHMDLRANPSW
Structure (SMILES),DC50 [nM],Emax (read-out: STAT6 degradation Emax (%)) [%]
"COCc1nc2cc(-c3ccnc4c3cc([C@H](C)N3CCC(c5ccc(C(=O)N6CCC(CN7CCN(Cc8ccc9c(c8)n(C)c(=O)n9C8CCC(=O)NC8=O)C[C@@H]7C)CC6)cc5)CC3)n4C)ccc2[nH]1 (stereo partly drawn) [Example 3e22, 3-(5-(((S)-4-((1-(4-(1-((S)-1-(4-(2-(methoxymethyl)-1H-benzo[d]imidazol-5-yl)-1-methyl-1H-pyrrolo[2,3-b]pyridin-2-yl)ethyl)piperidin-4-yl)benzoyl)piperidin-4-yl)methyl)-3-methylpiperazin-1-yl)methyl)-3-methyl-2-oxo-2,3-dihydro-1H-benzo[d]imidazol-1-yl)piperidine-2,6-dione]",0.3,–
"C[C@@H](c1cc2c(-c3ccc(N)nc3)ccnc2n1C)N1CCC(c2ccc(C(=O)N3CCC(CN4CCN(Cc5ccc6c(c5)n(CC(F)(F)F)c(=O)n6C5CCC(=O)NC5=O)CC4)CC3)cc2)CC1 (stereo partly drawn) [Example 3e25, 3-(5-((4-((1-(4-(1-((S)-1-(4-(6-aminopyridin-3-yl)-1-methyl-1H-pyrrolo[2,3-b]pyridin-2-yl)ethyl)piperidin-4-yl)benzoyl)piperidin-4-yl)methyl)piperazin-1-yl)methyl)-2-oxo-3-(2,2,2-trifluoroethyl)-2,3-dihydro-1H-benzo[d]imidazol-1-yl)piperidine-2,6-dione]",4,–
"[2H]C([2H])([2H])n1c(=O)n(C2CCC(=O)NC2=O)c2ccc(CN3CCN(CC4CCN(C(=O)c5ccc(C6CCN([C@@H](C)c7cc8c(-c9ccc(N)nc9)ccnc8n7C)CC6)cc5)CC4)CC3)cc21 (stereo partly drawn) [Example 3e26, 3-(5-((4-((1-(4-(1-((S)-1-(4-(6-aminopyridin-3-yl)-1-methyl-1H-pyrrolo[2,3-b]pyridin-2-yl)ethyl)piperidin-4-yl)benzoyl)piperidin-4-yl)methyl)piperazin-1-yl)methyl)-3-(methyl-d3)-2-oxo-2,3-dihydro-1H-benzo[d]imidazol-1-yl)piperidine-2,6-dione]",1.1,–
"COCc1nc2cc(-c3ccnc4c3cc([C@H](C)N3CCC(c5ccc(C(=O)N6CCC(CN7CCN(Cc8ccc9c(c8)n(C)c(=O)n9C8CCC(=O)NC8=O)CC7)CC6)cc5)CC3)n4C)ccc2[nH]1 (stereo partly drawn) [Example 3e66, 3-(5-((4-((1-(4-(1-((S)-1-(4-(2-(methoxymethyl)-1H-benzo[d]imidazol-5-yl)-1-methyl-1H-pyrrolo[2,3-b]pyridin-2-yl)ethyl)piperidin-4-yl)benzoyl)piperidin-4-yl)methyl)piperazin-1-yl)methyl)-3-methyl-2-oxo-2,3-dihydro-1H-benzo[d]imidazol-1-yl)piperidine-2,6-dione]",0.5,–
"Cn1c(CN2CCC(c3ccc(C(=O)N4CCN(CC5CCN(Cc6ccc7c(c6)n(C)c(=O)n7C6CCC(=O)NC6=O)CC5)CC4)cc3)CC2)cc2c(-c3ccc4[nH]ncc4c3)ccnc21 (centres unmarked) [Example 3f1, 3-(5-((4-((4-(4-(1-((4-(1H-indazol-5-yl)-1-methyl-1H-pyrrolo[2,3-b]pyridin-2-yl)methyl)-piperidin-4-yl)benzoyl)piperazin-1-yl)methyl)piperidin-1-yl)methyl)-3-methyl-2-oxo-2,3-dihydro-1H-benzo[d]imidazol-1-yl)piperidine-2,6-dione]",–,40 to 50
"Cn1c(CN2CCC(c3ccc(C(=O)N4CCC(CC5CCN(Cc6ccc7c(c6)n(C)c(=O)n7C6CCC(=O)NC6=O)CC5)CC4)cc3)CC2)cc2c(-c3ccc4[nH]ncc4c3)ccnc21 (centres unmarked) [Example 3h1, 3-(5-((4-((1-(4-(1-((4-(1H-indazol-5-yl)-1-methyl-1H-pyrrolo[2,3-b]pyridin-2-yl)methyl)-piperidin-4-yl)benzoyl)piperidin-4-yl)methyl)piperidin-1-yl)methyl)-3-methyl-2-oxo-2,3-dihydro-1H-benzo[d]imidazol-1-yl)piperidine-2,6-dione]",2.4,–

# Further lines, results first:
DC50 [nM],Emax (read-out: STAT6 degradation Emax (%)) [%],Structure (SMILES)
0.8,–,"CNc1ccc(-c2ccnc3c2cc([C@H](C)N2CCC(c4ccc(C(=O)N5CCC(CN6CCN(Cc7ccc8c(c7)n(C)c(=O)n8C7CCC(=O)NC7=O)C[C@@H]6C)CC5)cc4)CC2)n3C)cn1 (stereo partly drawn) [Example 3h2, 3-(3-methyl-5-(((S)-3-methyl-4-((1-(4-(1-((S)-1-(1-methyl-4-(6-(methylamino)pyridin-3-yl)-1H-pyrrolo[2,3-b]pyridin-2-yl)ethyl)piperidin-4-yl)benzoyl)piperidin-4-yl)methyl)piperazin-1-yl)methyl)-2-oxo-2,3-dihydro-1H-benzo[d]imidazol-1-yl)piperidine-2,6-dione]"
1,–,"CNc1ccc(-c2ccnc3c2cc([C@H](C)N2CCC(c4ccc(C(=O)N5CCC(CN6CCN(Cc7ccc8c(c7)n(C)c(=O)n8[C@H]7CCC(=O)NC7=O)C[C@@H]6C)CC5)cc4)CC2)n3C)cn1 [Example 3h4, (S)-3-(3-methyl-5-(((S)-3-methyl-4-((1-(4-(1-((S)-1-(1-methyl-4-(6-(methylamino)pyridin-3-yl)-1H-pyrrolo[2,3-b]pyridin-2-yl)ethyl)piperidin-4-yl)benzoyl)piperidin-4-yl)methyl)piperazin-1-yl)methyl)-2-oxo-2,3-dihydro-1H-benzo[d]imidazol-1-yl)piperidine-2,6-dione]"
1.4,–,"CNc1ccc(-c2ccnc3c2cc([C@H](C)N2CC=C(c4c(C)cc(C(=O)N5CCC(CN6CCN(Cc7ccc8c(c7)n(C7CC7)c(=O)n8[C@@H]7CCC(=O)NC7=O)C[C@@H]6C)CC5)cc4F)CC2)n3C)cn1 [Example 3h7, (R)-3-(3-cyclopropyl-5-(((S)-4-((1-(3-fluoro-5-methyl-4-(1-((S)-1-(1-methyl-4-(6-(methylamino)pyridin-3-yl)-1H-pyrrolo[2,3-b]pyridin-2-yl)ethyl)-1,2,3,6-tetrahydropyridin-4-yl)benzoyl)piperidin-4-yl)methyl)-3-methylpiperazin-1-yl)methyl)-2-oxo-2,3-dihydro-1H-benzo[d]imidazol-1-yl)piperidine-2,6-dione]"
28.4,–,"CNc1ccc(-c2ccnc3c2cc([C@H](C)N2CC=C(c4c(C)cc(C(=O)N5CCC(CC6CCN(c7ccc8c(c7)C7(CC7)C(=O)N8C7CCC(=O)NC7=O)CC6)CC5)cc4F)CC2)n3C)cn1 (stereo partly drawn) [Example 3h8, 3-(5′-(4-((1-(3-fluoro-5-methyl-4-(1-((S)-1-(1-methyl-4-(6-(methylamino)pyridin-3-yl)-1H-pyrrolo[2,3-b]pyridin-2-yl)ethyl)-1,2,3,6-tetrahydropyridin-4-yl)benzoyl)piperidin-4-yl)methyl)piperidin-1-yl)-2′-oxospiro[cyclopropane-1,3′-indolin]-1′-yl)piperidine-2,6-dione]"
1.1,–,"C[C@H]1CN(Cc2ccc3c(c2)n(C)c(=O)n3C2CCC(=O)NC2=O)CCN1CC1CCN(C(=O)c2ccc(N3CCN(Cc4cc5c(-c6ccc(N)nc6)ccnc5n4C)CC3)cc2)CC1 (stereo partly drawn) [Example 3h14, 3-(5-(((S)-4-((1-(4-(4-((4-(6-aminopyridin-3-yl)-1-methyl-1H-pyrrolo[2,3-b]pyridin-2-yl)methyl)piperazin-1-yl)benzoyl)piperidin-4-yl)methyl)-3-methylpiperazin-1-yl)methyl)-3-methyl-2-oxo-2,3-dihydro-1H-benzo[d]imidazol-1-yl)piperidine-2,6-dione]"
